Columns and labels:
[1] = system: mice; test: GSH and cysteine levels after administration to mice; type: in vivo; conditions: 30 minutes after administration
[2] = system: PC12 cells; test: LDH assay, glutamate cytotoxicity; type: cell-based; conditions: 10 mM glutamate + 750 μM NAC amide, 24 hours; glutamate alone = 100%
Experimental: LDH assay: For the lactate dehydrogenase (LDH) assay, cells were plated at a density of 2.5×10^5 cells/well in a 24 well collagen-coated culture plate and, after 24 h; the medium was replaced with fresh DMEM medium containing the desired concentration of glutamate and NAC amide. After the desired incubation period, the LDH activity released was determined using the kit as described below. For the MTS assay, cells were plated at a density of 10^5 cells/well in a 24 well collagen-coated plate. At the end of the experiments, cell viability was assayed using the kit as described. The LDH activity assay was performed with the CytoTox96® Non-Radioactive Cytotoxicity Assay kit (Promega, Madison, Wis., USA), which quantitatively measured the activity of LDH, a stable cytosolic enzyme that is released upon cell lysis [Technical Bulletin No. 163, Promega]. […] Absorbance data were collected using a BMG microplate reader (BMG Labtechnologies, Inc., Durham, N.C., USA) at 490 nm. LDH leakage was expressed as the percentage (%) of the maximum LDH release in the cells treated with glutamate alone (100%), according to the formula: […]
To quantify the protection provided by NAC amide, PC12 cells were exposed to 10 mM glutamate in the presence of NAC amide for 24 hours, and then the amount of LDH released was measured using the LDH assay.

[3] = system: Sprague-Dawley rats; test: Survival after whole body single-dose X-ray irradiation (9 Gy); type: in vivo, rat; conditions: for survival rate versus XRT alone: pre-treated before XRT
Description: This Example describes a study observing the survival of rats receiving whole body, single-dose irradiation by X-rays (XRT) in the presence or absence of NAC or NAC amide (TOVA). In this experiment, thirty-nine female Sprague-Dawley rats ranging from about 150-200 g were subjected to total body, single-dose X-ray irradiation (9 Gy, 16 Mev). The same groups were designated to receive either NAC or TOVA. For the pre-treatment groups (n=6 in each group), the first treatment of NAC or TOVA was administered 30 minutes to 1 hour before irradiation. For the post-pretreatment groups (n=6 in each group), the first treatment of NAC or TOVA was administered 30 minutes to 1 hour after the irradiation. For groups receiving NAC or TOVA, the same amount (500 mg/kg NAC or TOVA daily) was administered for 4 or 5 consecutive days.
Group 1 was a control group (n=3), where rats received the same amount of saline solution daily for 5 consecutive days without XRT. Group 2 rats received NAC only (n=3) at an amount of 500 mg/kg body weight NAC daily for 5 consecutive days without XRT. Group 3 rats received TOVA only (n=3) at an amount of 500 mg/kg body weight TOVA daily for 5 consecutive days without XRT. Group 4 rats received radiation (XRT) only (n=6) and received the same amount of saline solution daily for 5 consecutive days after single dose total-body XRT irradiation.
Group 5 rats received one treatment of NAC at 500 mg/kg body weight before XRT (XRT+NAC pre-treated), which was then followed by 500 mg/kg body weight NAC daily for 4 consecutive days after XRT. Group 6 rats received XRT, followed by daily doses of NAC at 500 mg/kg body weight for 5 consecutive days after XRT (XRT+NAC post-treated). Group 7 rats […] at 500 mg/kg body weight before XRT (XRT+TOVA pre-treated), which was then followed by 500 mg/kg body weight TOVA daily for 4 consecutive days after XRT. Group 8 rats received XRT, followed by daily doses of TOVA at 500 mg/kg body weight for 5 consecutive days after XRT (XRT+TOVA post-treated). All rats were then given a normal diet post-treatment.
The rats were observed twice a day, and the survival status of rats in each group will be recorded. The mean survival days were calculated for each group and compared to the survival differences of the three groups of rats at the end of the experiment. The radioprotective effects of NAC and TOVA treatment on the survival of those irradiated rats were then evaluated, as shown in the following tables.

[4] = system: PC12 cells; test: GSH measurement in cells (NPM/HPLC); type: cell-based
Experimental: Cells were seeded at a density of 80,000 cells/cm^2 on poly-D-lysine coated (0.05 mg/ml) 75 cm^2 flasks (5 ml/flask) for GSH measurement. […] After the incubation period, cells were removed from the cultures and homogenized in serine borate buffer (100 mM Tris-HCl, 10 mM boric acid, 5 mM L-serine, 1 mM DETAPAC, pH 7.4). Twenty (20) μl of the diluted cell homogenate were added to 230 μl of serine borate buffer and 750 μl of NPM (1 mM in acetonitrile). The resulting solutions were incubated at room temperature for 5 min. The reaction was stopped by the addition of 5 μl of 2N HCl. The samples were then filtered through a 0.2 μm Acrodisc filter and injected onto the HPLC system.
[…] Values represent means.+−.SD. Statistically different values of *P<0.05 were determined, compared to control. **P<0.001 compared to glutamate-treated group. ***P<0.05 compared to glutamate-treated group.

[5] = Table 15, XRT 9 Gy, post-treated
[6] = Table 15, XRT 9 Gy, pre-treated
[7] = Table 15, compound only, no XRT
[8] = Table 16, XRT 9 Gy, post-treated
[9] = Table 16, XRT 9 Gy, pre-treated
[10] = Table 16, compound only, no XRT
[11] = XRT 9 Gy, post-treated, 500 mg/kg daily, n = 6, 2nd time
[12] = XRT 9 Gy, pre-treated, 500 mg/kg daily, n = 6, 1st time
[13] = XRT 9 Gy, pre-treated, 500 mg/kg daily, n = 6, 2nd time
[14] = compound only, no XRT, 500 mg/kg daily 5 days, 2nd time

Compound	percentage survival rate [3, 5] [%]	percentage survival rate [3, 6] [%]	percentage survival rate [3, 7] [%]	percentage survival rate [3, 8] [%]	percentage survival rate [3, 9] [%]	percentage survival rate [3, 10] [%]	# of animals dead [3, 11]	# of animals survived [3, 11]	# of animals dead [3, 12]	# of animals survived [3, 12]	# of animals dead [3, 13]	# of animals survived [3, 13]	# of animals dead [3, 14]	# of animals survived [3, 14]	survival rate versus XRT alone [3]	other results
N-acetylcysteine amide [NAC amide]	66.7	100	100	66.7	100	100	2	4	0	6	0	6	0	3	higher survival rate	GSH and cysteine levels [1]: Increases; % LDH released [2]: 28.9%; increase of PC12 cell GSH level compared to the control group ([4]; 750 μM, 24 hour treatment): two fold; GSH Levels ([4]; GLU (10 mM) + BSO (0.2 mM) + NAC amide (750 μM)): 30 ± 4.3 nM/mg protein; GSH Levels ([4]; GLU (10 mM) + NAC amide (750 μM)): 88 ± 11.0 nM/mg protein; GSH Levels ([4]; NAC amide (750 μM) alone): 112 ± 17.8 nM/mg protein; cells' GSH levels maintained in GSH synthesis-arrested cells ([4]; glutamate + BSO (0.2 mM)): 56%
CC(=O)N[C@@H](CS)C(=O)O [NAC, N-acetylcysteine]	33.3	83.3	100	33.3	83.3	100	4	2	1	5	1	5	0	2	higher survival rate	–

— patent US10869846B2, “N-acetylcysteine amide (NAC amide) in the treatment of diseases and conditions associated with oxidative stress” (SENTIENT LIFESCIENCES, INC., priority 2005, dated 2020)
